Reference: patent publication US8841301B2, “Selective NR2B antagonists” (Bristol-Myers Squibb Company, priority 2011, dated 2014)
Counter-ions that a name gives are not always drawn. Like-named read-outs stand apart in the source and are kept apart here.

Biological target: hNR2B (Homo sapiens, UniProt Q05586+Q13224)
Experiment: Electrophysiology NMDA receptor experiments: two electrode voltage-clamp in Xenopus laevis oocytes expressing GluN1/GluN2 subunits
Assay type: cell-based
Conditions: oocytes voltage clamped at −40 mV, 50 μM glutamate, 30 μM glycine
Experimental: Electrophysiology NMDA Receptor Experiments.
Stage V and VI oocytes were surgically removed from the ovaries of large, well-fed and healthy Xenopus laevis anesthetized with 3-amino-benzoic acid ethyl ester (3 gm/l). Clusters of isolated oocytes were incubated with 292 U/ml Worthington (Freehold, N.J.) type IV collagenase or 1.3 mg/ml collagenase (Life Technologies, Gaithersburg, Md.; 17018-029) for 2 hr in Ca^2+-free solution comprised of (in mM) 115 NaCl, 2.5 KCl, and 10 HEPES, pH 7.5, with slow agitation to remove the follicular cell layer. Oocytes were then washed in the same solution supplemented with 1.8 mM CaCl2 and maintained in Barth's solution comprised of (in mM): 88 NaCl, 1 KCl, 2.4 NaHCO3, 10 HEPES, 0.82 MgSO4, 0.33 Ca(NO3)2, and 0.91 CaCl2 and supplemented with 100 μg/ml gentamycin, 10 μg/ml streptomycin, and 10 μg/ml penicillin. Oocytes were manually defolliculated and injected within 24 hrs of isolation with 3-5 ng of human GluN1 subunit cRNA and 7-10 ng of human GluN2 cRNA subunit in a 50 nl volume, and incubated in Barth's solution at 18° C. for 2-7 d. Glass injection pipettes had tip sizes ranging from 10-20 microns, and were backfilled with mineral oil. cRNA was synthesized from linearized template cDNA for rat glutamate receptor subunits according to manufacturer specifications (Ambion).
Two electrode voltage-clamp recordings were made 2-7 days post-injection. Oocytes were placed in a dual-track plexiglass recording chamber with a single perfusion line that splits in a Y-configuration to perfuse two oocytes. Dual recordings were made at room temperature (23° C.) using two Warner OC725B two-electrode voltage clamp amplifiers, arranged as recommended by the manufacturer. Glass microelectrodes (1-10 Megaohms) were filled with 300 mM KCl (voltage electrode) or 3 M KCl (current electrode). The bath clamps communicated across silver chloride wires placed into each side of the recording chamber, both of which were assumed to be at a reference potential of 0 mV. Oocytes were perfused with a solution comprised of (in mM) 90 NaCl, 1 KCl, 10 HEPES, […] and 0.5 BaCl2; pH 7.4, adjusted by addition of NaOH. Oocytes were recorded under voltage clamp at −40 mV. Final concentrations for glutamate and glycine were 50 μM and 30 μM, respectively. Concentration-response curves for experimental compounds were obtained by applying in successive fashion maximal glutamate/glycine, followed by glutamate/glycine plus variable concentrations of experimental compounds. Dose response curves consisting of four to eight concentrations were obtained in this manner. The baseline leak current at −40 mV was measured before and after recording, and the full recording linearly corrected for any change in leak current. The level of inhibition by applied experimental compounds was expressed as a percent of the initial glutamate response, and averaged together across oocytes from multiple experiments. Results were pooled, and the average percent responses at antagonist concentrations were fit by the equation, Percent Response=(100−minimum)/(1+([conc]/IC50)^nH)+minimum where minimum is the residual percent response in saturating concentration of the experimental compounds, IC50 is the concentration of antagonist that causes half of the achievable inhibition, and nH is a slope factor describing steepness of the inhibition curve. […]
For NMDA receptor subtype selectivity experiments human GluN1/GluN2A, GluN1/GluN2C, and GluN1/GluN2D cRNAs were expressed in Xenopus laevis as described above. Here, 10 μM concentrations of the antagonist was perfused with 50 μM glutamate and 30 μM glycine onto the oocyte for two min and the remaining current in the presence of the antagonist was compared to the maximal current obtained with 50 μM glutamate and 30 μM glycine alone (defined as 100%). When IC50 determinations were made against other NMDA receptor subtypes the protocol as described above was followed. […]

Chain of hNR2B (Q13224 27-1484, other chains not shown): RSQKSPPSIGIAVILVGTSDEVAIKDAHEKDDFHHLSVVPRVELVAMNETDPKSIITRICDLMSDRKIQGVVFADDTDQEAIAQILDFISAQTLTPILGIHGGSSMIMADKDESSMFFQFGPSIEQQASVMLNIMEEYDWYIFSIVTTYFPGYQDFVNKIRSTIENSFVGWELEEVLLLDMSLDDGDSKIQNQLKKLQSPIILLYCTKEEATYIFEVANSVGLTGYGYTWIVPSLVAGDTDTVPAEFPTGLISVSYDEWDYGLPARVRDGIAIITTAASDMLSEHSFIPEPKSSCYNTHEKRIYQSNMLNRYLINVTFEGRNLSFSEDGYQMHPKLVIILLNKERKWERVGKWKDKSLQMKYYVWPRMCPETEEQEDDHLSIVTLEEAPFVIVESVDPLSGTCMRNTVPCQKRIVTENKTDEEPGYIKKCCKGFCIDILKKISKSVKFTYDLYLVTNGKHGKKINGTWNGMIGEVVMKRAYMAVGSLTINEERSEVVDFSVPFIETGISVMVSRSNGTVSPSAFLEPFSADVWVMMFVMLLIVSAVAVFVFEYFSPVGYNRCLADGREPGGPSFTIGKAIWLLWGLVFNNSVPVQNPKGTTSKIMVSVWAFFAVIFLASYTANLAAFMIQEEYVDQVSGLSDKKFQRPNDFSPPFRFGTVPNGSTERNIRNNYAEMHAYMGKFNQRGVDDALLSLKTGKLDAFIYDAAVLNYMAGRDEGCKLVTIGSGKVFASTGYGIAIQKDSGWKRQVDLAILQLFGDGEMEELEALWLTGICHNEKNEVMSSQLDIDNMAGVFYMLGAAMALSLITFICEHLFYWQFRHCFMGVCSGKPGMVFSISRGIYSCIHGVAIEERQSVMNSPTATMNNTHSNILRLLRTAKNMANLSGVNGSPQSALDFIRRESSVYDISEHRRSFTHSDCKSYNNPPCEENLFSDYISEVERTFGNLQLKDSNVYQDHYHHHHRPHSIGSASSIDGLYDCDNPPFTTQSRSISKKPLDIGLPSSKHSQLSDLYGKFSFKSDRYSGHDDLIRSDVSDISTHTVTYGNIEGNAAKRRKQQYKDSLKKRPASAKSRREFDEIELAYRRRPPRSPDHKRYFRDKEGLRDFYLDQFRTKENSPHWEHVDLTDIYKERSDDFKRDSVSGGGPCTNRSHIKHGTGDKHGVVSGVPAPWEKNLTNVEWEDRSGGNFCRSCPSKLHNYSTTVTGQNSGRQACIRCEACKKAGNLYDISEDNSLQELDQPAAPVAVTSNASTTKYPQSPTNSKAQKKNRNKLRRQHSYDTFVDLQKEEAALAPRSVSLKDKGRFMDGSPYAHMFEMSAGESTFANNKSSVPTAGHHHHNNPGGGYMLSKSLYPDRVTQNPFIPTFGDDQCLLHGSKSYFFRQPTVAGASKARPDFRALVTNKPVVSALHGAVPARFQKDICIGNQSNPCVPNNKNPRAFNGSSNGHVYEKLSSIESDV

Row | SMILES | IC50 (read-out: Rating (hNR2B IC50)) [nM] | IC50 (read-out: hNR2B IC50) [nM]
1 | CC(C)(C)c1ccc(Nc2ncc(COc3ccc4[nH]c(=O)ccc4c3)cn2)cc1 [Example 47] | < 200 | 
2 | O=c1[nH]c2ccc(OCc3cnc(Nc4ccc(OC(F)(F)F)cc4)nc3)cc2o1 [Example 80] | < 200 | 
3 | O=c1ccc2cc(OCc3cnc(Nc4ccc(Cl)cc4)nc3C(F)(F)F)ccc2[nH]1 [Example 54] | < 200 | 
4 | CCc1ccc(Nc2ncc(CCc3ccc4c(c3)C(C)(C)OC(=O)N4)cn2)cc1F [Example 141] | 1000 to 10000 | 
5 | FC(F)Oc1ccc(Nc2ncc(C3CC3c3cccc4[nH]ncc34)cn2)cc1 (stereo not shown) [Example 117] | > 10000 | 
6 | O=c1[nH]c2ccc(OCc3cnc(Nc4ccc(OC(F)(F)F)cc4)nc3)cc2s1 [Example 71] | < 200 | 
7 | Cc1cc(Nc2ncc(COc3ccc4[nH]c(=O)ccc4c3)cn2)ccc1OC(F)F [Example 38] | < 200 | 
8 | COc1ccc(Nc2ncc(COc3ccc4[nH]c(=O)ccc4c3)cn2)cn1 [Example 48] | < 200 | 
9 | O=c1ccc2cc(OCc3cnc(Nc4ccc(OC(F)F)c(Cl)c4)nc3)c(F)cc2[nH]1 [Example 88] | < 200 | 
10 | FC(F)(F)Oc1ccc(Nc2ncc(COc3ccc4[nH]ncc4c3)cn2)cc1 [Example 56] | < 200 | 
11 | FC(F)Oc1ccc(Nc2ccc(CCc3ccc4[nH]ncc4c3)nn2)cc1 [Example 156, 6-(2-(1H-indazol-5-yl)ethyl)-N-(4-(difluoromethoxy)phenyl)pyridazin-3-amine] |  | 135
12 | Fc1cc(Nc2ncc(CCc3ccc4[nH]ncc4c3)cn2)ccc1OC(F)F [Example 128] | < 200 | 
13 | Cc1cc(Nc2ncc(COc3ccc4c(c3)CC(=O)N4)cn2)ccc1OC(F)F [Example 86] | < 200 | 
14 | CCc1ccc(Nc2ncc(COc3ccc4[nH]c(=O)ccc4c3)cn2)cc1F [Example 39] | < 200 | 
15 | COc1ccc(Nc2ncc(COc3ccc4[nH]c(=O)ccc4c3)cn2)cc1C [Example 46] | < 200 | 
16 | FC(F)(F)Oc1ccc(Nc2ncc(COc3ccc4[nH]nc(C(F)(F)F)c4c3)cn2)cc1 [Example 15, N-(4-(trifluoromethoxy)phenyl)-5-(((3-(trifluoromethyl)-1H-indazol-5-yl)oxy)methyl)pyrimidin-2-amine] |  | > 3000
17 | FC1(F)Oc2ccc(Nc3ncc(CCc4ccc5[nH]ncc5c4)cn3)cc2O1 [Example 133] | 1000 to 10000 | 
18 | Cc1ccc(Nc2ncc(CCc3ccc4c(c3)C(C)(C)OC(=O)N4)cn2)cc1F [Example 142] | 1000 to 10000 | 
19 | FC(F)Oc1ccc(Nc2ncc(CCc3ccc4[nH]ncc4c3)cn2)cc1Cl [Example 104, 5-(2-(1H-indazol-5-yl)ethyl)-N-(3-chloro-4-(difluoromethoxy)phenyl)pyrimidin-2-amine] |  | 183
20 | FC(F)Oc1ccc(Nc2ncc(COc3cnc4[nH]ccc4c3)cn2)cc1Cl [Example 90] | < 200 | 

Row | SMILES | IC50 (read-out: Rating (hNR2B IC50)) [nM] | IC50 (read-out: hNR2B IC50) [nM]
21 | FC(F)Oc1ccc(Nc2ncc(CCc3cnc4[nH]ncc4c3)cn2)cc1 [Example 154] | < 200 | 
22 | COc1ccc(Nc2ncc(COc3ccc4[nH]c(=O)ccc4c3)cn2)cc1F [Example 29] | < 200 | 
23 | COc1ccc(Nc2ncc(CCc3ccc4[nH]c(=O)ccc4c3)cn2)cc1C [Example 132] | < 200 | 
24 | FC(F)Oc1ccc(Nc2ncc(COc3ccc4[nH]ncc4c3)cn2)cc1 [Example 57] | < 200 | 
25 | Cc1cc(OCc2cnc(Nc3ccc(OC(F)(F)F)cc3)nc2)cc2cn[nH]c12 [Example 67] | < 200 | 
26 | O=C1Nc2ccc(CCc3cnc(Nc4ccc(OC(F)F)c(Cl)c4)nc3)cc2CO1 [Example 143] | < 200 | 
27 | COc1cc(Nc2ncc(COc3ccc4[nH]c(=O)ccc4c3)cn2)ccc1F [Example 33] | 1000 to 10000 | 
28 | O=c1ccc2cc(OCc3cc(NCc4ccc(Cl)c(Cl)c4)ncn3)ccc2[nH]1 [Example 97] | 1000 to 10000 | 
29 | O=C1Nc2ccc(OCc3cnc(Nc4ccc(OC(F)F)cc4)nc3)cc2CO1 [Example 58] | < 200 | 
30 | CCc1ccc(Nc2ncc(CCc3ccc4[nH]c(=O)ccc4c3)cn2)cc1Cl [Example 135] | 1000 to 10000 | 
31 | CCc1ccc(Nc2ncc(CCc3ccc4[nH]ncc4c3)cn2)cc1F [Example 125] | 1000 to 10000 | 
32 | O=C1CCc2cc(OCc3ccc(Nc4ccc(OC(F)(F)F)cc4)nc3)cc(F)c2N1 [Example 6] | 1000 to 10000 | 
33 | COc1ncc(Nc2ncc(COc3ccc4[nH]c(=O)ccc4c3)cn2)cc1C [Example 49] | < 200 | 
34 | Oc1ccc(CCc2cnc(Nc3ccc(OC(F)F)cc3)nc2)cc1 [Example 107, 4-(2-(2-((4-(difluoromethoxy)phenyl)amino)pyrimidin-5-yl)ethyl)phenol] |  | 35
35 | Cc1cc(Nc2ncc(COc3ccc4[nH]ncc4c3Cl)cn2)ccc1OC(F)F [Example 73] | < 200 | 
36 | O=c1ccc2cc(OCc3cnc(Nc4ccc(OC(F)F)cc4)nc3C(F)(F)F)ccc2[nH]1 [Example 53] | < 200 | 
37 | Oc1ccc(CCc2cnc(Nc3ccc(OC(F)F)cc3)nc2)cc1 [Example 150] | < 200 | 
38 | O=c1ccc2cc(OCc3ccnc(Nc4ccc(Cl)cc4)n3)ccc2[nH]1 [Example 93, 6-((2-(4-chlorophenylamino)pyrimidin-4-yl)methoxy)quinolin-2(1H)-one] |  | 1250
39 | O=c1ccc2cc(OCc3cnc(Nc4ccc(OC(F)(F)F)cc4)nc3)ccc2[nH]1 [Example 23] | < 200 | 
40 | O=c1ccc2cc(OCc3cnc(Nc4ccc(F)cc4)nc3)ccc2[nH]1 [Example 30] | < 200 | 

Row | SMILES | IC50 (read-out: Rating (hNR2B IC50)) [nM] | IC50 (read-out: hNR2B IC50) [nM]
41 | O=c1ccc2cc(OCc3cnc(Nc4ccc(F)c(Cl)c4)nc3)ccc2[nH]1 [Example 32] | 201 to 1000 | 
42 | O=C1Nc2ccc(OCc3cnc(Nc4ccc(OC(F)(F)F)cc4)nc3)cc2CO1 [Example 61] | < 200 | 
43 | FC(F)(F)Oc1ccc(Nc2ncc(COc3ccc4[nH]nnc4c3)cn2)cc1 [Example 68] | < 200 | 
44 | CCc1ccc(Nc2ncc(CCc3ccc4[nH]c(=O)ccc4c3)cn2)cc1F [Example 126] | < 200 | 
45 | O=c1ccc2cc(OCc3cc(Nc4ccc(Cl)cc4)ncn3)ccc2[nH]1 [Example 96] | < 200 | 
46 | CC1(C)OC(=O)Nc2ccc(CCc3cnc(Nc4ccc(OC(F)F)c(F)c4)nc3)cc21 [Example 148] | 1000 to 10000 | 
47 | FC(F)Oc1ccc(Nc2ncc(COc3cn[nH]c3)cn2)cc1 [Example 63] | < 200 | 
48 | O=c1ccc2cc(OCc3cnc(Nc4ccc(OC(F)F)cc4)nc3)ccc2[nH]1 [Example 22] | < 200 | 
49 | CCc1ccc(Nc2ncc(CCc3ccc4c(c3)COC(=O)N4)cn2)cc1F [Example 144] | < 200 | 
50 | O=c1ccc2cc(OCc3ccc(Nc4ccc(OC(F)F)cc4)nc3)ccc2[nH]1 [Example 3] | < 200 | 
51 | O=c1ccc2cc(OCc3cc(Nc4ccc(Cl)c(Cl)c4)ncn3)ccc2[nH]1 [Example 95, 6-((6-(3,4-dichlorophenylamino)pyrimidin-4-yl)methoxy)quinolin-2(1H)-one trifluoroacetate] |  | 36
52 | O=c1ccc2cc(OCc3cnc(Nc4ccc(OC(F)F)c(Cl)c4)nc3)ccc2[nH]1 [Example 35] | < 200 | 
53 | O=C1Nc2ccc(CCc3cnc(Nc4ccc(OC(F)F)cc4)nc3)cc2CO1 [Example 139] | < 200 | 
54 | O=c1ccc2cc(OCc3ccc(NCc4cccc(Cl)c4)nc3)ccc2[nH]1 [Example 8] | 1000 to 10000 | 
55 | O=c1ccc2cc(C3CC3c3cnc(Nc4ccc(OC(F)F)cc4)nc3)ccc2[nH]1 (stereo not shown) [Example 110] | < 200 | 
56 | O=c1ccc2cc(CCc3cnc(Nc4ccc(OC(F)F)c(F)c4)nc3)ccc2[nH]1 [Example 129] | < 200 | 
57 | FC(F)Oc1ccc(Nc2ncc(CCCNc3ncccn3)cn2)cc1 [Example 114] | > 10000 | 
58 | FC(F)Oc1ccc(Nc2ncc(COc3ccc4[nH]ncc4c3Cl)cn2)cc1 [Example 66] | < 200 | 
